Measurements published in patent US20260158009A1 (GENZYME CORPORATION, priority 2023, published 2026).

How the values were obtained:
[1] = molecular target: T1, hRIPK1 (aa 1-375) fusion protein (Homo sapiens, UniProt Q13546); test: ADP-Glo kinase assay: catalytic activity of RIPK1 (autophosphorylation, conversion of ATP to ADP); type: biochemical
T1 construct: hRIPK1 (aa 1-375) fusion protein
T1 sequence (Q13546 1-375): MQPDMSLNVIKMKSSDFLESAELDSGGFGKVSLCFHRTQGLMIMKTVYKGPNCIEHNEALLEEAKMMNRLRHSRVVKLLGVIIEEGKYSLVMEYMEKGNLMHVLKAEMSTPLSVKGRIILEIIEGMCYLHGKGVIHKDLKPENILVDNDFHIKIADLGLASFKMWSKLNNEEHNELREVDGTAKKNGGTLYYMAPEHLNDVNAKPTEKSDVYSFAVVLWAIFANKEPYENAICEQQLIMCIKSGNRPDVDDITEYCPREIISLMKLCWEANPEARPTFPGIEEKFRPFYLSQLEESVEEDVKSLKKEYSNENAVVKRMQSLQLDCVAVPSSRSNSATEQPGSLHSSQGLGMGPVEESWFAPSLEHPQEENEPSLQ
In short: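 hRIPK1 (aa 1-375) fusion protein (3.6 μg/ml final) was preincubated 30 min at rt with compound (33300-1.69 nM, 1% DMSO), then 50 μM ATP was added for 240 min at rt. ADP from autophosphorylation was measured by ADP-Glo luminescence and curves fitted by nonlinear regression.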

U937 cells = test: Cellular assay in U937 cells: activity of RIPK1 inhibitors on TNFα/zVAD.fmk-induced cell death (necroptosis), CellTiter 96 AQueous (MTS) readout; type: cell-based; conditions: Homo sapiens, U-937
In short: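 Necroptosis was measured by viable-cell MTS reduction (4 h, absorbance 490 nm) after overnight (18–24 h) 37° C culture. Cell suspensions of U937 cells carried TNFα (100 ng/ml) plus zVAD.fmk (50 μM) before compound was added. A 10-point curve (10 μM–0.26 nM or 1 μM–0.07 nM) was run in duplicate, normalised to the control lacking TNFα/zVAD.fmk.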

Structure (SMILES)	IC50 [1]	IC50 (U937 cells)
O=C1NCc2c(F)cc(C[C@H]3CC[C@H](C(=O)N4OCC[C@H]4c4ccc(F)cc4)CC3)cc21 [compound 212, trans-4-fluoro-6-[[4-[(3S)-3-(4-fluorophenyl)isoxazolidine-2-carbonyl]cyclohexyl]methyl]isoindolin-1-one]	23 nM	10 nM
COc1cncc([C@@H]2CCON2C(=O)[C@H]2CC[C@H](Cn3ncc4cc(C#N)ccc43)CC2)n1 [compound 217, trans-1-[[4-[(3S)-3-(6-methoxypyrazin-2-yl)isoxazolidine-2-carbonyl]cyclohexyl]methyl]indazole-5-carbonitrile]	41 nM	12 nM
N#Cc1ccc2c(cnn2C[C@H]2CC[C@H](C(=O)N3OCC[C@H]3c3cnccn3)CC2)c1 [compound 218, trans-1-[[4-[(3S)-3-pyrazin-2-ylisoxazolidine-2-carbonyl]cyclohexyl]methyl]indazole-5-carbonitrile]	20 nM	13 nM
Cc1nccn1-c1cc(F)cc(C[C@H]2CC[C@H](C(=O)N3OCC[C@H]3c3cncc(F)c3)CC2)c1 [compound 220, trans-[4-[[3-fluoro-5-(2-methylimidazol-1-yl)phenyl]methyl]cyclohexyl]-[(3S)-3-(5-fluoro-3-pyridyl)isoxazolidin-2-yl]methanone]	26 nM	12 nM
Cc1nc2ccc(C[C@H]3CC[C@H](C(=O)N4OCC[C@H]4c4cc(F)cc(C#N)c4)CC3)cn2n1 [compound 221, trans-3-fluoro-5-[(3S)-2-[4-[(2-methyl-[1,2,4]triazolo[1,5-a]pyridin-6-yl)methyl]cyclohexanecarbonyl]isoxazolidin-3-yl]benzonitrile]	22 nM	19 nM
Cc1nc2ccc(C[C@H]3CC[C@H](C(=O)N4OCC[C@H]4c4cnccn4)CC3)cn2n1 [compound 222, trans-[4-[(2-methyl-[1,2,4]triazolo[1,5-a]pyridin-6-yl)methyl]cyclohexyl]-[(3S)-3-pyrazin-2-ylisoxazolidin-2-yl]methanone]	37 nM	48 nM
Cc1nnc2ccc(C[C@H]3CC[C@H](C(=O)N4OCC[C@H]4c4cc(F)cc(C#N)c4)CC3)cn12 [compound 224, trans-3-fluoro-5-[(3S)-2-[4-[(3-methyl-[1,2,4]triazolo[4,3-a]pyridin-6-yl)methyl]cyclohexanecarbonyl]isoxazolidin-3-yl]benzonitrile]	35 nM	17 nM
Cc1cn2cc(C[C@H]3CC[C@H](C(=O)N4OCC[C@H]4c4cnccn4)CC3)ccc2n1 [compound 226, trans-[4-[(2-methylimidazo[1,2-a]pyridin-6-yl)methyl]cyclohexyl]-[(3S)-3-pyrazin-2-ylisoxazolidin-2-yl]methanone]	44 nM	40 nM
Cc1cn2cc(C[C@H]3CC[C@H](C(=O)N4OCC[C@H]4c4cc(F)cc(F)c4)CC3)ccc2n1 [compound 227, trans-[(3S)-3-(3,5-difluorophenyl)isoxazolidin-2-yl]-[4-[(2-methylimidazo[1,2-a]pyridin-6-yl)methyl]cyclohexyl]methanone]	23 nM	5 nM
Cn1cc(C[C@H]2CC[C@H](C(=O)N3OCC[C@H]3c3cncc(C#N)c3)CC2)cn1 [compound 235, trans-5-[(3S)-2-[4-[(1-methylpyrazol-4-yl)methyl]cyclohexanecarbonyl]isoxazolidin-3-yl]pyridine-3-carbonitrile]	35 nM	152 nM
Cn1cc(C[C@H]2CC[C@H](C(=O)N3OCC[C@H]3c3cc(F)cc(F)c3)CC2)cn1 [compound 236, trans-[(3S)-3-(3,5-difluorophenyl)isoxazolidin-2-yl]-[4-[(1-methylpyrazol-4-yl)methyl]cyclohexyl]methanone]	20 nM	4 nM
Cn1nccc1C[C@H]1CC[C@H](C(=O)N2OCC[C@H]2c2cc(F)cc(C#N)c2)CC1 [compound 237, trans-3-fluoro-5-[(3S)-2-[4-[(2-methylpyrazol-3-yl)methyl]cyclohexanecarbonyl]isoxazolidin-3-yl]benzonitrile]	23 nM	66 nM
Cn1nccc1C[C@H]1CC[C@H](C(=O)N2OCC[C@H]2c2cnccn2)CC1 [compound 238, trans-[4-[(2-methylpyrazol-3-yl)methyl]cyclohexyl]-[(3S)-3-pyrazin-2-ylisoxazolidin-2-yl]methanone]	41 nM	257 nM
Cc1nc(C[C@H]2CC[C@H](C(=O)N3OCC[C@H]3c3cc(F)cc(C#N)c3)CC2)cs1 [compound 239, trans-3-fluoro-5-[(3S)-2-[4-[(2-methylthiazol-4-yl)methyl]cyclohexanecarbonyl]isoxazolidin-3-yl]benzonitrile]	27 nM	5 nM
Cc1nc(C[C@H]2CC[C@H](C(=O)N3OCC[C@H]3c3cnccn3)CC2)cs1 [compound 240, trans-[4-[(2-methylthiazol-4-yl)methyl]cyclohexyl]-[(3S)-3-pyrazin-2-ylisoxazolidin-2-yl]methanone]	27 nM	52 nM
COc1cncc([C@@H]2CCON2C(=O)[C@H]2CC[C@H](Cn3ccc4ccc(C#N)cc43)CC2)n1 [compound 241, trans-1-[[4-[(3S)-3-(6-methoxypyrazin-2-yl)isoxazolidine-2-carbonyl]cyclohexyl]methyl]indole-6-carbonitrile]	148 nM	28 nM
N#Cc1cc(C[C@H]2CC[C@H](C(=O)N3OCC[C@H]3c3ccc(F)cc3)CC2)ccc1F [compound 242, trans-2-fluoro-5-[[4-[(3S)-3-(4-fluorophenyl)isoxazolidine-2-carbonyl]cyclohexyl]methyl]benzonitrile]	21 nM	16 nM
O=C([C@H]1CC[C@H](Cc2cnccn2)CC1)N1OCC[C@H]1c1cnccn1 [compound 246, trans-[(3S)-3-pyrazin-2-ylisoxazolidin-2-yl]-[4-(pyrazin-2-ylmethyl)cyclohexyl]methanone]	150 nM	918 nM

More lines, in order of falling IC50 [1], values ahead:

IC50 [1]	Structure (SMILES)	IC50 (U937 cells)
20 nM	Cn1nccc1-c1cc(F)cc(C[C@H]2CC[C@H](C(=O)N3OCC[C@H]3c3cc(F)cc(C#N)c3)CC2)c1 [compound 214, trans-3-fluoro-5-[(3S)-2-[4-[[3-fluoro-5-(2-methylpyrazol-3-yl)phenyl]methyl]cyclohexanecarbonyl]isoxazolidin-3-yl]benzonitrile]	4 nM
20 nM	N#Cc1ccc2cnn(C[C@H]3CC[C@H](C(=O)N4OCC[C@H]4c4ccccn4)CC3)c2c1 [compound 215, trans-1-[[4-[(3S)-3-(2-pyridyl)isoxazolidine-2-carbonyl]cyclohexyl]methyl]indazole-6-carbonitrile]	7 nM
19 nM	O=C1NCc2c(F)cc(C[C@H]3CC[C@H](C(=O)N4OCC[C@H]4c4cnccn4)CC3)cc21 [compound 213, trans-4-fluoro-6-[[4-[(3S)-3-pyrazin-2-ylisoxazolidine-2-carbonyl]cyclohexyl]methyl]isoindolin-1-one]	16 nM
19 nM	Cc1nc2ccc(C[C@H]3CC[C@H](C(=O)N4OCC[C@H]4c4cc(F)cc(F)c4)CC3)cn2n1 [compound 223, trans-[(3S)-3-(3,5-difluorophenyl)isoxazolidin-2-yl]-[4-[(2-methyl-[1,2,4]triazolo[1,5-a]pyridin-6-yl)methyl]cyclohexyl]methanone]	5 nM
19 nM	Cc1cn2cc(C[C@H]3CC[C@H](C(=O)N4OCC[C@H]4c4cc(F)cc(C#N)c4)CC3)ccc2n1 [compound 225, trans-3-fluoro-5-[(3S)-2-[4-[(2-methylimidazo[1,2-a]pyridin-6-yl)methyl]cyclohexanecarbonyl]isoxazolidin-3-yl]benzonitrile]	7 nM
17 nM	N#Cc1cc(F)cc([C@@H]2CCON2C(=O)[C@H]2CC[C@H](Cc3cc(F)c4c(c3)C(=O)NC4)CC2)c1 [compound 219, trans-3-fluoro-5-[(3S)-2-[4-[(7-fluoro-3-oxo-isoindolin-5-yl)methyl]cyclohexanecarbonyl]isoxazolidin-3-yl]benzonitrile]	3 nM
17 nM	N#Cc1cc(F)cc([C@@H]2CCON2C(=O)[C@H]2CC[C@H](Cc3cnccn3)CC2)c1 [compound 245, trans-3-fluoro-5-[(3S)-2-[4-(pyrazin-2-ylmethyl)cyclohexanecarbonyl]isoxazolidin-3-yl]benzonitrile]	16 nM
15 nM	Cc1nccn1-c1cc(F)cc(C[C@H]2CC[C@H](C(=O)N3OCC[C@H]3c3cc(F)cc(C#N)c3)CC2)c1 [compound 216, trans-3-fluoro-5-[(3S)-2-[4-[[3-fluoro-5-(2-methylimidazol-1-yl)phenyl]methyl]cyclohexanecarbonyl]isoxazolidin-3-yl]benzonitrile]	10 nM
13 nM	N#Cc1cc(C[C@H]2CC[C@H](C(=O)N3OCC[C@H]3c3cnccn3)CC2)ccc1F [compound 243, trans-2-fluoro-5-[[4-[(3S)-3-pyrazin-2-ylisoxazolidine-2-carbonyl]cyclohexyl]methyl]benzonitrile]	3 nM
